Values of other authors as cited in patent US20260285945A1, “OMOMYC AND KRAS INHIBITORS COMBINATION THERAPY FOR THE TREATMENT OF CANCER” (PEPTOMYC, S.L., priority 2023, published 2026).

Tested on: cancer cell proliferation
Settings: single agent; background of the invention

CNCc1ccccc1-c1csc([C@@H](C)Nc2nc(C)nc3cc(OC)c(OC)cc23)c1 [BAY-293]
Inhibition of cancer cell proliferation, potency: weak potency
